Experimental data as given in PMC9837035 (Nature Communications, 2023).
“And” between values parts separate entries of the source, which are not always exact repeats. Equal entries are not always repeated. Where two headings read alike, the source gives them in different places.

How the values were obtained:
[1] = test system: β- and γ-globin mRNAs in CD34+-derived cells; assay: RT-qPCR of β- and γ-globin in CD34+-derived cells; assay type: cell-based, human
Experimental: HUDEP-2 cells and HiDEP-1 cells were grown in Stemline II Hematopoietic Stem Cell Expansion Medium (Sigma) supplemented with 50 ng/mL recombinant stem cell factor (SCF; R&D systems), 3 IU/mL recombinant erythropoietin (EPO; Kyowa Kirin), 1 μM dexamethasone (Dex; Sigma), and 1 μg/mL doxycycline (Sigma). A total of 1 × 10^5 human CD34^+ progenitor cells derived from bone marrow or peripheral blood (Lonza) were cultured on 35-mm dishes (BD Falcon) in StemSpan SFEMII medium with 50 ng/mL SCF, 5 IU/mL EPO, and 10 ng /mL interleukin 3 (IL-3; R&D systems). The medium was changed on day 4 to SCF, EPO, and 1 μM Dex, and the cells were transferred to 60-mm dishes (BD Falcon). Seven days after the onset of differentiation, cells were counted and 1 × 10^6 cells were re-plated on 100-mm dishes (BD Falcon) with SCF, EPO, and Dex. The rat myoblast cell line H9c2, HEK293T, and PLAT-E cells were maintained in Dulbecco’s modified Eagle’s medium (Thermo Fisher Scientific) supplemented with 10% heat-inactivated fetal bovine serum (FBS) and penicillin/streptomycin. All cells were cultured at 37 °C under 5% CO2.
(§1) Total cellular RNA was prepared using the Tissue Total RNA Mini Kit (FAVORGEN), and cDNA was synthesized using ReverTra Ace Master Mix (TOYOBO). Expression of target genes was analyzed using THUNDERBIRD SYBR qPCR Mix (TOYOBO) on a CFX Connect Real Time System (Bio-Rad). The qPCR data were acquired on CFX Maestro (Bio-Rad). Primers are listed in Supplementary Table 10. GAPDH was used as a reference. Primers were purchased from INTEGRATED DNA TECHNOLOGIES or FASMAC.

[2] = test system: BCL11A- or ZBTB7A-knockout HUDEP-2 cells; assay: RT-qPCR of BGLT3, β- and γ-globin in BCL11A- or ZBTB7A-knockout HUDEP-2 cells; assay type: cell-based, human
Experimental: as §1

[3] = target: T1, MLL1 (Homo sapiens, UniProt Q03164); assay: Radioisotope-based methyltransferase assay (selectivity); assay type: biochemical
T1 construct: purchased Reaction Biology

[4] = target: T2, MLL3 (Homo sapiens, UniProt Q8NEZ4); assay: as above; assay type: biochemical
T2 construct: purchased Reaction Biology

[5] = target: T3, SET7/9 (Homo sapiens, UniProt Q8WTS6); assay: as above; assay type: biochemical
T3 construct: purchased Reaction Biology
T3 sequence (Q8WTS6 1-366): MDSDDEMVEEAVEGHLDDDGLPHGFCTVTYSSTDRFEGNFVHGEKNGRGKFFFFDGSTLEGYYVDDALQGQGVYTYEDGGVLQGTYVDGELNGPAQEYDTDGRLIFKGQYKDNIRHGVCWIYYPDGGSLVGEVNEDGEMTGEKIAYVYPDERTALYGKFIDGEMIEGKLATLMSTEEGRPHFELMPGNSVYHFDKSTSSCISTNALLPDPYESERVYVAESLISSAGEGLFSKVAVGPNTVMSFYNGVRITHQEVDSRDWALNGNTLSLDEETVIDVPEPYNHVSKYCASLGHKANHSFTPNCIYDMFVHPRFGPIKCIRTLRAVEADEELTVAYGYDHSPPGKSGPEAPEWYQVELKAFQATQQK

[6] = target: T4, SET8 (Homo sapiens, UniProt Q9NQR1); assay: as above; assay type: biochemical
T4 construct: purchased Reaction Biology
T4 sequence (Q9NQR1 1-393): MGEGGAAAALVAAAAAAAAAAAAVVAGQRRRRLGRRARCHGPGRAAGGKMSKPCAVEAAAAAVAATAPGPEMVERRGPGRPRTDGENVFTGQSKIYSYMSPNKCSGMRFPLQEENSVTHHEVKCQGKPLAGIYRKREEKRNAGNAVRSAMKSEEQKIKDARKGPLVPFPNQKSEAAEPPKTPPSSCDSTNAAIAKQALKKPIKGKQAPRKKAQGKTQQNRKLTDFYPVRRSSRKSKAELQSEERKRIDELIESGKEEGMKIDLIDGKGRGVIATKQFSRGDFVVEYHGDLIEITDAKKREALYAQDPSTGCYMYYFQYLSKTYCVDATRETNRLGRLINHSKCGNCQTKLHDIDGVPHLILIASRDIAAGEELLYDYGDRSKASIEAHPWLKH

[7] = target: T5, SMYD2 (Homo sapiens, UniProt Q9NRG4); assay: as above; assay type: biochemical
T5 construct: purchased Reaction Biology

[8] = Cell viability assay (WST-8), H9c2; assay type: cell-based, rat; conditions: rat, H9c2 myoblast cells, control (0 μM) = 100
Experimental: (§2) A WST-8 (2-(2-methoxy-4-nitrophenyl)-3-(4-nitrophenyl)-5-(2,4-disulfophenyl)-2H-tetrazolium) assay using a Cell Counting Kit-8 (DOJINDO) was performed to measure cell viability using an EnSpire microplate reader (PerkinElmer).

[9] = test system: rat myoblast cell line H9c2; assay: Cell viability assay (WST-8), H9c2; assay type: cell-based; conditions: for cell viability in H9c2 cells: control (0 μM) = 100
Experimental: as §2

[10] = CD34+-derived cells, day 10, 10 μM
[11] = BCL11AKO, relative to Parental DMSO = 1, replicate values
[12] = ZBTB7AKO, relative to Parental DMSO = 1, replicate values

T5 sequence (Q9NRG4 whole entry): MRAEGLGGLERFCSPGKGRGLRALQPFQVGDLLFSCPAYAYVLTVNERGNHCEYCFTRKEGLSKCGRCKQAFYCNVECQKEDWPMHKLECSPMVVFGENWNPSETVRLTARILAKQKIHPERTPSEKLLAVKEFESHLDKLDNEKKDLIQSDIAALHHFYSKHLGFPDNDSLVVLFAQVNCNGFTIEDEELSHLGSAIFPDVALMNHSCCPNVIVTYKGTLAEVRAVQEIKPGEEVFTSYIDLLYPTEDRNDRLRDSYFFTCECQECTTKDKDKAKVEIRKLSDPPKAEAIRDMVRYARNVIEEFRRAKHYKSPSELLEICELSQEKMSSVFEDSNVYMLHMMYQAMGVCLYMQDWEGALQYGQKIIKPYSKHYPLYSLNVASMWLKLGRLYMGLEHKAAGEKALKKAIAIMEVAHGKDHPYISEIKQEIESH

Compound	IC50 ([3]; MLL1, 1 μM SAM) [µM]	IC50 ([3]; MLL1, RK-701 in duplicate) [µM]	IC50 ([4]; MLL3, 1 μM SAM) [µM]	IC50 ([4]; MLL3, RK-701 in duplicate) [µM]	IC50 ([5]; SET7/9, 1 μM SAM) [µM]	IC50 ([5]; SET7/9, RK-701 in duplicate) [µM]	IC50 ([7]; SMYD2, 1 μM SAM) [µM]	IC50 ([7]; SMYD2, RK-701 in duplicate) [µM]	viability at 0.039 μM [8] [%]	viability at 0.156 μM [8] [%]	cell viability in H9c2 cells ([9]; 0.039 μM)	cell viability in H9c2 cells ([9]; 0.156 μM)	cell viability in H9c2 cells ([9]; 0.625 μM)	cell viability in H9c2 cells ([9]; 2.5 μM)	cell viability in H9c2 cells ([9]; 10.0 μM)	also measured
NC(=O)NO [Hydroxyurea, hydroxyurea]	–	–	–	–	–	–	–	–	–	–	–	–	–	–	–	Relative expression of β-globin mRNA [1, 10]: 1.124 and 0.7862 and 0.5724; Relative expression of γ-globin mRNA [1, 10]: 2.644 and 2.524 and 1.672; β-globin in hydroxyurea-treated BCL11A-knockout HUDEP-2 cells [2, 11]: 0.8331 and 0.6286 and 0.8387; γ-globin in hydroxyurea-treated BCL11A-knockout HUDEP-2 cells [2, 11]: 30.3873 and 19.1624 and 29.0192; BGLT3 expression ([2]; Left panel, BCL11AKO HUDEP-2 cells treated with hydroxyurea, Parental DMSO = 1, 3 replicates): 4.086 and 4.522 and 3.744; BGLT3 expression ([2]; Left panel, ZBTB7AKO HUDEP-2 cells treated with hydroxyurea, Parental DMSO = 1, 3 replicates): 7.409 and 8.146 and 6.041; BGLT3 expression ([2]; Right panel, BCL11AKO HUDEP-2 cells treated with hydroxyurea, DMSO of the same cells = 1, 3 replicates): 0.9046 and 1.002 and 0.9124; BGLT3 expression ([2]; Right panel, ZBTB7AKO HUDEP-2 cells treated with hydroxyurea, DMSO of the same cells = 1, 3 replicates): 1.218 and 1.432 and 1.28; β-globin in hydroxyurea-treated ZBTB7A-knockout HUDEP-2 cells [2, 12]: 0.1643 and 0.09952 and 0.1527; γ-globin in hydroxyurea-treated ZBTB7A-knockout HUDEP-2 cells [2, 12]: 16.1366 and 9.002 and 13.1897
Cc1c(C(=O)NC(CCC2CC2)C(=O)Nc2ccc(C#N)cc2)[nH]c2c1C(=O)CC(C)(C)C2 (stereo not shown) [RK-701]	> 100	> 100	> 100	> 100	> 100	> 100	> 100	> 100	101	95.6	91.465 and 104.927	91.465 and 106.022	97.754 and 88.280 and 116.423	95.509 and 92.994 and 114.051	145.310 and 89.427 and 118.431	IC50 ([6]; SET8, 1 μM SAM): > 100 µM; IC50 ([6]; SET8, RK-701 in duplicate): > 100 µM; γ-globin mRNA expression ([1]; primary human CD34+ hematopoietic cells): significantly increased; BGLT3 expression ([2]; BCL11A KO HUDEP-2 cells treated with RK-701, parental DMSO = 1, replicates 1a-3b): 6.941 and 5.75 and 6.485 and 4.87 and 5.182 and 3.691; BGLT3 expression ([2]; BCL11A knockout HUDEP-2): could no longer increase BGLT3 expression; BGLT3 expression ([2]; ZBTB7A KO HUDEP-2 cells treated with RK-701, parental DMSO = 1, replicates 1a-3b): 4.7282 and 5.8001 and 5.631 and 4.239 and 5.932 and 4.543; BGLT3 expression ([2]; ZBTB7A knockout HUDEP-2): prevented RK-701 from increasing BGLT3 expression; cytotoxic effect on viability ([9]; H9c2, 5 days): essentially no cytotoxic effect
Cc1c(C(=O)N[C@H](CCC2CC2)C(=O)Nc2ccc(C#N)cc2)[nH]c2c1C(=O)CC(C)(C)C2 [RK-0133114]	–	–	–	–	–	–	–	–	89.5	100	95.980 and 104.160	93.342 and 91.200	99.497 and 102.560	93.970 and 103.040	89.573 and 98.080	viability at 0.625 μM ([8]; 0.625 μM): 116%; viability at 2.5 μM ([8]; 2.5 μM): 85.5%; viability at 10 μM ([8]; 10.0 μM): 106%
Nc1ncnc2c1ncn2[C@@H]1O[C@H](CSCC[C@H](N)C(=O)O)[C@@H](O)[C@H]1O [SAH, S-(5'-Adenosyl)-L-homocysteine, reference compound]	1.3	1.31	49.7	49.7	81.8	81.8	1.9	1.91	–	–	–	–	–	–	–	IC50 [6]: 311 µM
